# Test results as given in PubChem BioAssay AID2060909 (Molecular Pharmacology Branch, DTP, NCI, 2025).
# System: 362531-283-R-J2-PDC complex spheroid viability
# Assay: Anticancer human tumor 362531-283-R-J2-PDC patient-derived colon adenocarcinoma cell line growth inhibition [RAS]
# Details: for viability, T/C: stronger effect = lower value
# Source text: RAS pathway inhibitors in Combinations in Complex Spheroids
# A high-throughput screen of multi-cell type tumor spheroids was designed to identify active combinations of RAS pathway inhibitors and targeted small molecules. Complex spheroids include a stromal component modeled by human endothelial cells (HUVEC) and fibroblasts modeled by human mesenchymal stem cells (MSCs). The concentration ranges selected for each drug and investigational agent were based upon clinically achievable concentrations if the clinical Cmax of the agent was known.
# Compounds. The drugs and investigational agents: abemaciclib (NSC768073), cobimetinib (NSC768068), divarasib (GDC6063, NSC841802), docetaxel (NSC628503), GDC-1971 (RLY-1971, NSC841576), gemcitabine (NSC613327), inavolisib (NSC800729), ipatasertib (NSC767898), KB-0742 (NSC834161), MRTX-1133 (NSC836407), osimertinib (NSC779217), RMC-4630 (NSC839698), RMC-6236 (NSC851965), RMC-6291 (NSC852671), Ro-3306 (NSC812927), sapanisertib (NSC764658), SN-38 (NSC673596), staurosporine (NSC755774), SY5609 (NSC837396), and tovorafenib (DAY101, NSC766906), were obtained from the National Cancer Institute (NCI) Developmental Therapeutics Program Chemical Repository. The FDA-approved anticancer drug set is available from the NCI Developmental Therapeutics Program. […] The stock solutions were prepared in dimethyl sulfoxide (DMSO, Sigma-Aldrich, St. Louis, MO, cat. D2650) at 800-fold the tested concentration and stored at -70 degrees C prior to their use. All drugs and investigational agents were tested over a range starting from a high concentration at or near the clinical Cmax and decreasing in half-log increments. If the clinical Cmax for an agent had not been determined, the highest concentration tested was 10 microM.
# Cell Culture. All cells were maintained in an incubator at 37 degrees C and 5% CO2 with 95% humidity. The PDC lines were cultured according to standard operating procedures established by the NCI PDMR. All PDCs were thawed and cultured in Matrigel-coated flasks prepared with a working solution of 1X Ham's F-12 nutrient mix, without supplementation (Invitrogen, Waltham, MA, cat. 11765054), 100 U/mL penicillin-streptomycin (Invitrogen, cat. 15140122), and 2.5% Matrigel (Corning Inc., Corning, NY, cat. 354248) for the first three passages. The 362531-283-R-J2-PDC and 782815-120-R-J1-PDC lines were cultured in 6C/Colon 1B media, which includes advanced DMEM/F-12 (Thermo Fisher Scientific, cat. 12634028), 10 mM HEPES (Thermo Fisher Scientific, cat. 15630080), 1X GlutaMAX supplement (Thermo Fisher Scientific, cat. 35050061), 0.1 mg/mL primocin (InvivoGen, San Diego, CA, cat. ant-pm-2), 10% defined fetal bovine serum, heat inactivated (HyClone Laboratories Inc., Logan, UT, cat. SH30070.03HI), 50% L-WRN conditioned media (ATCC, cat. CRL-3276), 1.25 mM N-Acetyl-L-cysteine (Sigma-Aldrich, cat. A9165), 10 mM nicotinamide (Sigma-Aldrich, cat. N0636), 1X B-27 supplement (Thermo Fisher Scientific, cat. 17504044), 1X N-2 supplement (Thermo Fisher Scientific, cat. 17502048), 50 ng/mL human EGF (Thermo Fisher Scientific, cat. PHG0311), and 10 microM Y-27632 dihydrochloride (Tocris Bioscience, cat. 1254). The K12877-001-R-J1-PDC line was cultured in 6I media, which includes all 6C/Colon 1B media plus 10 ng/mL human FGF-10 (PeproTech, cat. 100-26), 1 ng/mL human FGF-2 (PeproTech, cat. 100-18B), 1 µM prostaglandin E2 (Tocris Bioscience, cat. 2296), […] hydrocortisone (Sigma-Aldrich, cat. H4001), and […] bovine insulin (Sigma-Aldrich, cat. I6634). The K86415-001-R-J1-PDC line was cultured in 6D media, which includes all 6C/Colon 1B media components minus the L-WRN conditioned media. The 485176-168-R4-J1-PDC was cultured in PANC media, which includes all 6C/Colon 1B media plus 100 ng/mL human FGF-10 (PeproTech, cat. 100-26), 500 nM SB-431542 (Selleckchem, cat. S1067), and 10 nM gastrin (Tocris Bioscience, cat. 3006). […]
# 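Note: spheroids exposed to the agents for 7 days before readout.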
# 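Throughout, for viability, T/C: luminescence viability as percent of DMSO vehicle control wells.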
smiles,measurement,setting,value
C=CC(=O)Nc1cc(Nc2nccc(-c3cn(C)c4ccccc34)n2)c(OC)cc1N(C)CCN(C)C + C=CC(=O)N1CCN(c2nc(OCC3CCCN3C)nc3c(F)c(-c4nc(N)cc(C)c4C(F)(F)F)c(Cl)cc23)C(C)C1,IC50,"curve of first compound, second compound 0.00316 µM",> 1 µM
same,IC50,"curve of first compound, second compound 0.01 µM",> 1 µM
same,IC50,"curve of first compound, second compound 0.0316 µM",> 1 µM
same,IC50,"curve of first compound, second compound 0.1 µM",> 1 µM
same,IC50,"curve of first compound, second compound 0.316 µM",> 1 µM
same,IC50,"curve of first compound, second compound 1 µM",> 1 µM
same,"viability, T/C","second compound 0.00316 µM, first compound 0.00316 µM",103%
same,"viability, T/C","second compound 0.00316 µM, first compound 0.01 µM",97.4%
same,"viability, T/C","second compound 0.00316 µM, first compound 0.0316 µM",100%
same,"viability, T/C","second compound 0.00316 µM, first compound 0.1 µM",95.6%
same,"viability, T/C","second compound 0.00316 µM, first compound 0.316 µM",89%
same,"viability, T/C","second compound 0.00316 µM, first compound 1 µM",69.8%
same,"viability, T/C","second compound 0.01 µM, first compound 0.00316 µM",107%
same,"viability, T/C","second compound 0.01 µM, first compound 0.01 µM",100%
same,"viability, T/C","second compound 0.01 µM, first compound 0.0316 µM",104%
same,"viability, T/C","second compound 0.01 µM, first compound 0.1 µM",98.3%
same,"viability, T/C","second compound 0.01 µM, first compound 0.316 µM",96.9%
same,"viability, T/C","second compound 0.01 µM, first compound 1 µM",56%
same,"viability, T/C","second compound 0.0316 µM, first compound 0.00316 µM",104%
same,"viability, T/C","second compound 0.0316 µM, first compound 0.01 µM",99.2%
same,"viability, T/C","second compound 0.0316 µM, first compound 0.0316 µM",98.3%
same,"viability, T/C","second compound 0.0316 µM, first compound 0.1 µM",94.9%
same,"viability, T/C","second compound 0.0316 µM, first compound 0.316 µM",93.5%
same,"viability, T/C","second compound 0.0316 µM, first compound 1 µM",65.5%
same,"viability, T/C","second compound 0.1 µM, first compound 0.00316 µM",103%
same,"viability, T/C","second compound 0.1 µM, first compound 0.01 µM",104%
same,"viability, T/C","second compound 0.1 µM, first compound 0.0316 µM",101%
same,"viability, T/C","second compound 0.1 µM, first compound 0.1 µM",96.8%
same,"viability, T/C","second compound 0.1 µM, first compound 0.316 µM",101%
same,"viability, T/C","second compound 0.1 µM, first compound 1 µM",62.8%
same,"viability, T/C","second compound 0.316 µM, first compound 0.00316 µM",93.8%
same,"viability, T/C","second compound 0.316 µM, first compound 0.01 µM",96%
same,"viability, T/C","second compound 0.316 µM, first compound 0.0316 µM",98.1%
same,"viability, T/C","second compound 0.316 µM, first compound 0.1 µM",94.8%
same,"viability, T/C","second compound 0.316 µM, first compound 0.316 µM",96.2%
same,"viability, T/C","second compound 0.316 µM, first compound 1 µM",54.9%
same,"viability, T/C","second compound 1 µM, first compound 0.00316 µM",105%
same,"viability, T/C","second compound 1 µM, first compound 0.01 µM",95.8%
same,"viability, T/C","second compound 1 µM, first compound 0.0316 µM",97.4%
same,"viability, T/C","second compound 1 µM, first compound 0.1 µM",103%
same,"viability, T/C","second compound 1 µM, first compound 0.316 µM",86.5%
same,"viability, T/C","second compound 1 µM, first compound 1 µM",70.7%
Nc1ccn(C2OC(CO)C(O)C2(F)F)c(=O)n1 (centres undefined),"viability, T/C",compound 0.00316 µM,93.5% [middle of 4 runs]
same,"viability, T/C",compound 0.01 µM,95.2% [middle of 4 runs]
same,"viability, T/C",compound 0.0316 µM,84.4% [middle of 4 runs]
same,"viability, T/C",compound 0.1 µM,70.5% [middle of 4 runs]
same,"viability, T/C",compound 0.316 µM,21.9% [middle of 4 runs]
same,"viability, T/C",compound 1 µM,26.6% [middle of 4 runs]
same,IC50,curve of compound,167 nM [middle of 4 runs]
